Structures can show the parent of a compound that is named as a salt. Where two headings read alike, the source gives them in different places.
Key:
Format in all cases: biochemical
E. coli DNA gyrase = molecular target: T1, E. coli DNA gyrase (Escherichia coli, UniProt P0AES4+P0AES6); assay: DNA gyrase supercoiling assay (E. coli); details: for inhibition at 100 µM / % inhibition DNA gyrase: conc. 100 μM; for inhibition at 100 µM / inhibition at 50 µM / inhibition at 200 µM / % inhibition DNA gyrase: n/a = not active; for inhibition at 50 µM: conc. 50 μM; for inhibition at 200 µM: conc. 200 μM
T1 construct: purchased Inspiralis, UK
Description: (§1) The above compounds were tested for the inhibition of the enzyme DNA gyrase in a gyrase supercoiling assay and for the inhibition of the enzyme topoisomerase IV in a decatenation assay, in both Gram positive and Gram negative bacteria, according to the following methods.
(§2) Both the assays were carried out according to a set-up method modified from the article to Blanche F, et al. “Differential Behaviors of Staphylococcus aureus and Escherichia coli Type II DNA Topoisomerases”, Antimicrob. Agents Chemother., 1996, Vol. 40, No. 12 p. 2714-2720.
(§3) The compounds were screened at single concentration (200, 100 or 50 μM), in duplicate.
(§4) Reagents from S. aureus and E. coli Gyrase Supercoiling Assay kits (Inspiralis, UK) were used. A master mix with a total volume sufficient for the number of reactions to perform was prepared with the following reagents: 5× assay buffer, relaxed pBR322 substrate (0.5 μg/reaction), RNase-DNase free water. Aliquotes of this mix were dispensed in each tube, then 10× compound stock solutions or vehicle control (DMSO), were added to each reaction tube.
(§5) Reaction was started with E. Coli (2 U/reaction) or S. aureus (1 U/reaction) gyrase enzyme addition.
(§6) A sample added with an equal volume of dilution buffer was used as negative control (without enzyme).
(§7) The reaction tubes were gentle vortexed and incubated 30 minutes at 37° C. Each reaction was stopped by adding 30 μl of Stop Buffer and 30 μl chloroform/isoamyl alcohol (24/1), briefly vortexed for 5-10 seconds and centrifuged at 20000×g for 2 minutes. Samples were loaded onto 1% agarose gel and subjected to electrophoresis for 1 hour at 80V constant voltage in TAE (40 mM Tris-acetate, 2 mM EDTA).
(§8) Data acquisition and analysis. Treatment of relaxed pBR322 with DNA gyrase converted the relaxed topoisomers (DNAs of different linking number) to the supercoiled form of the plasmid, which migrates faster on an agarose gel. An upper band might also be visible, which consists of open-circular (nicked) DNA which is present in the relaxed substrate but co-migrates with some of the relaxed topoisomers.
(§9) Bands were visualized by ethidium bromide staining (dilution 1:20000) for 30 minutes followed by destaining in distilled water for 10 minutes.
(§10) In order to evaluate the compounds activity on the enzyme, the bands of supercoiled DNAs in the gel were photographed by a digital imaging system ImageQuant LAS 4000 (GE Healthcare) according to manufacturer's instructions.
(§11) The fluorescent intensity of each band was analyzed by ImageQuant TL software and it was expressed as volume (volume of the uncalibrated quantity of material in the image feature after subtraction of the background intensity by using rolling ball method).
(§12) Each band intensity was compared, as percentage, to vehicle sample band intensity, which served as positive control, on the same gel.
(§13) Inhibitory activity was expressed as percent of inhibition versus the positive control.
(§14) The supercoiled or decatenated DNA bands obtained as described in Example 1 were analysed as follows.
(§15) Bands were analyzed by gel documentation equipment (Syngene, Cambridge, UK) and quantitated using Syngene Gene Tools software. Raw gel data (fluorescent band volumes) collected from Syngene, GeneTools gel analysis software were converted to a percentage of the 100% control (the fully supercoiled or decatenated DNA band). […] The IC50 data were calculated by using the global curve fit non-linear regression tool by selecting the Single, 2 Parameter fit function from the Exponential Decay equation category.

E. coli Topoisomerase IV = molecular target: T2, E. coli Topoisomerase IV (Escherichia coli, UniProt P0AFI2+P20083); assay: Topoisomerase IV decatenation assay (E. coli); details: for inhibition at 100 µM / % inhibition Topo IV: conc. 100 μM; for inhibition at 100 µM / inhibition at 50 µM / inhibition at 200 µM / % inhibition Topo IV: n/a = not active; for inhibition at 100 µM / inhibition at 50 µM / inhibition at 200 µM: read-out: % inhibition Topo IV; for inhibition at 50 µM: conc. 50 μM; for inhibition at 200 µM: conc. 200 μM
T2 construct: purchased Inspiralis, UK
Description: as §1, §2, §3
S. aureus and E. coli Topoisomerase IV decatenation kits (Inspiralis, UK) were used. A master mix with a total volume sufficient for the number of reactions to perform was prepared with the following reagents: 5× assay buffer (50 mM HEPES-KOH (pH 7.6), 100 mM potassium glutamate, 10 mM magnesium acetate, 10 mM DTT, 1 mM ATP, 50 μg/ml albumin), kDNA substrate (200 ng/reaction), RNase-DNase free water. Aliquots of this mix were dispensed in each tube, then 10× compound stock solutions or vehicle control (DMSO), were added in each reaction tube.
Reaction was started with Topoisomerase IV enzyme (0.5 U/reaction) addition.
as §6
The reaction tubes were gentle vortexed and incubated 30 minutes at 37° C. Each reaction was stopped by adding 30 μl of Stop Buffer and 30 μl of chloroform/isoamyl alcohol (24/1), briefly vortexed for 5-10 seconds and centrifuged at 20000×g for 2 minutes. Samples taken from the upper phase were loaded into 1% agarose gel and subjected to electrophoresis for 1 hour at 80V constant voltage in TAE (40 mM Tris-acetate, 2 mM EDTA).
Data acquisition and analysis. Due to the high molecular mass, kDNA could not enter an agarose gel under normal electrophoresis conditions, but remained in the wells. In the presence of Topo IV topoisomerase mini-circles (2.5 Kb) were released from kDNA by decatenation and were quickly and easily resolved in the gel at relatively high voltages.
Bands were visualized by ethidium bromide staining (dil 1:20000) for 30 minutes followed by destaining in distilled water for 10 minutes.
For single concentration screening assay, in order to evaluate the compounds activity on the enzymes, the bands of decatenated DNAs in the gel were photographed by a digital imaging system ImageQuant LAS 4000 (GE Healthcare) according to manufacturer's instructions.
as §11, §12, §13, §14, §15

S. aureus DNA gyrase = molecular target: T3, S. aureus DNA gyrase (Staphylococcus aureus, UniProt P0A0K8+P20831); assay: DNA gyrase supercoiling assay (S. aureus); details: for inhibition at 100 µM / % inhibition DNA gyrase: conc. 100 μM; for inhibition at 100 µM / inhibition at 50 µM / inhibition at 200 µM / % inhibition DNA gyrase: n/a = not active; for inhibition at 50 µM: conc. 50 μM; for inhibition at 200 µM: conc. 200 μM
T3 construct: purchased Inspiralis, UK
Description: as §1, §2, §3, §4, §5, §6, §7, §8, §9, §10, §11, §12, §13, §14, §15

[1] = E. coli, concentration-response curve, eight half-log concentrations 0.1 to 300 μM, read-out: IC50 DNA gyrase
[2] = E. coli, concentration-response curve, eight half-log concentrations 0.1 to 300 μM, read-out: IC50 Topo IV
[3] = S. aureus, concentration-response curve, eight half-log concentrations 0.1 to 300 μM, read-out: IC50 DNA gyrase

T2 sequence (P20083 whole entry): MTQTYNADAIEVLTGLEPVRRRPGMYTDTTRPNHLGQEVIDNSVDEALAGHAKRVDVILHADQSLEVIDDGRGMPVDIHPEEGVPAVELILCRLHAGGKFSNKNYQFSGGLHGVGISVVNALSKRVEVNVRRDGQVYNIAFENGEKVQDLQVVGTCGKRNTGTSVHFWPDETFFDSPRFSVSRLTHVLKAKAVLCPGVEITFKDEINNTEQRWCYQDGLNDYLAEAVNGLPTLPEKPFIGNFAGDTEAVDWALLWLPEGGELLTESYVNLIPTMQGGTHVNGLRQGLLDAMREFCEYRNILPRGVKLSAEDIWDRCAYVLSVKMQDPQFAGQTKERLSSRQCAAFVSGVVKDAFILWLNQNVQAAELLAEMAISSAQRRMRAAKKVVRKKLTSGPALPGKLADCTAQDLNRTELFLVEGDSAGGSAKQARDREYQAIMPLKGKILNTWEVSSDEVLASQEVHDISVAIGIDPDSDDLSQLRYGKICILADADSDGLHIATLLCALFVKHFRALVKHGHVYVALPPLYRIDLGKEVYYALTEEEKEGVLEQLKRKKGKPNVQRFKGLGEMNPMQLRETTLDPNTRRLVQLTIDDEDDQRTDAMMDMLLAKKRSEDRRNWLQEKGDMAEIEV
T2 sequence (P0AFI2 whole entry): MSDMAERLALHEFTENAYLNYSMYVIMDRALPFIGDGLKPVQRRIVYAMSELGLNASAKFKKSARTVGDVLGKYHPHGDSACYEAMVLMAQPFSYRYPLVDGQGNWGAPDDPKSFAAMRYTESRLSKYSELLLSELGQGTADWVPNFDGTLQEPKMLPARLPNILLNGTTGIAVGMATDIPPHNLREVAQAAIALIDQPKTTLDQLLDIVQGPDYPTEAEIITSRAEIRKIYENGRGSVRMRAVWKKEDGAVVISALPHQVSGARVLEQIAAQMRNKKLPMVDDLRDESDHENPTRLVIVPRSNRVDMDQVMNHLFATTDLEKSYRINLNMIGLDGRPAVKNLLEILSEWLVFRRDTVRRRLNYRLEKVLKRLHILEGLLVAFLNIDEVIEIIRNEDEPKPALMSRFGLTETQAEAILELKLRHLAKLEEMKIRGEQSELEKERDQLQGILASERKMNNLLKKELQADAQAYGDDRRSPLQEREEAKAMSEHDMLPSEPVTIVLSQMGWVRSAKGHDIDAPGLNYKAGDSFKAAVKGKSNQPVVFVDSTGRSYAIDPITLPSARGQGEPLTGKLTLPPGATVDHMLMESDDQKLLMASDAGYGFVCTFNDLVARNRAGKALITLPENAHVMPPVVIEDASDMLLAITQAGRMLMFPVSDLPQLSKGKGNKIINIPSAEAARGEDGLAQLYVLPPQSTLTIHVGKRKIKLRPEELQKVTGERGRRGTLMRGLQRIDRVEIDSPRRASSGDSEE
T1 sequence (P0AES4 whole entry, one chain of several): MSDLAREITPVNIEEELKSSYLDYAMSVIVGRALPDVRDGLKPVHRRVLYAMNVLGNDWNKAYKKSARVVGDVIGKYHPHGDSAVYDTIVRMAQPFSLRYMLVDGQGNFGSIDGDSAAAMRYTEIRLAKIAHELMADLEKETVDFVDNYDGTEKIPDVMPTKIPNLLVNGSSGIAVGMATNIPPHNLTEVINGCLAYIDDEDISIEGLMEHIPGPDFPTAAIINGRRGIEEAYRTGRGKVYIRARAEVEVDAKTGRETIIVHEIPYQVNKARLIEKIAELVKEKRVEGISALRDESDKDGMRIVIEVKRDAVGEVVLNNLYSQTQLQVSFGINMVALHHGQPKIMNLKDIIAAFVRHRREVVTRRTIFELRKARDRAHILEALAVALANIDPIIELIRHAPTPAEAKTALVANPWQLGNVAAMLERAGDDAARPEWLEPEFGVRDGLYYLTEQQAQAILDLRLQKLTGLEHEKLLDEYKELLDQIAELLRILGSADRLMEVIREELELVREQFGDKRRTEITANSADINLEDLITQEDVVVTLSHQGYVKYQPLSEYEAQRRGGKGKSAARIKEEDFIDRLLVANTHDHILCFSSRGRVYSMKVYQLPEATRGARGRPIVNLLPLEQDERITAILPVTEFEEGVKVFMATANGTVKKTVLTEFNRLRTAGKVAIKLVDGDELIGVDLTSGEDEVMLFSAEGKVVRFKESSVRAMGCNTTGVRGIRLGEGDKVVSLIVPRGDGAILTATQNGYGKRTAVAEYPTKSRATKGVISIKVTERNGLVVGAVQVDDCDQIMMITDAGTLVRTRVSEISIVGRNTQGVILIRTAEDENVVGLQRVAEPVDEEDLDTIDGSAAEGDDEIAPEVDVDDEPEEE
T3 sequence (P0A0K8 whole entry): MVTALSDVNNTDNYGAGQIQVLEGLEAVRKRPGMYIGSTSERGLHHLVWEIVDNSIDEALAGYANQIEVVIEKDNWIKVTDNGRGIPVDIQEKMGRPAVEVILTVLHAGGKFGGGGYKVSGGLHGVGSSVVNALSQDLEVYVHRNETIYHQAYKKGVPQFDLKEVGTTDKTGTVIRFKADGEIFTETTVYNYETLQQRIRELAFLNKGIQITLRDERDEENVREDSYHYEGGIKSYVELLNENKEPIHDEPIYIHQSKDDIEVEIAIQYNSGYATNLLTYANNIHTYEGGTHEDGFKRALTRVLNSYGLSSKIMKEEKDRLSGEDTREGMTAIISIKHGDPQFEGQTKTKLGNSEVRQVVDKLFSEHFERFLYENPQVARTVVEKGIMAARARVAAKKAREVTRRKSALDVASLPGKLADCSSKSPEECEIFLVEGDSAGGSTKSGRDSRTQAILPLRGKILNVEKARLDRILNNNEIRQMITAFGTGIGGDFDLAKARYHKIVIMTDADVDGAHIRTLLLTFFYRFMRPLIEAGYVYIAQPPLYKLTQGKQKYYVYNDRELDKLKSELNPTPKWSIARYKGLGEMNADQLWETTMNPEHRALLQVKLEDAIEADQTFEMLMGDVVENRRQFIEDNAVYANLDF
T3 sequence (P20831 whole entry): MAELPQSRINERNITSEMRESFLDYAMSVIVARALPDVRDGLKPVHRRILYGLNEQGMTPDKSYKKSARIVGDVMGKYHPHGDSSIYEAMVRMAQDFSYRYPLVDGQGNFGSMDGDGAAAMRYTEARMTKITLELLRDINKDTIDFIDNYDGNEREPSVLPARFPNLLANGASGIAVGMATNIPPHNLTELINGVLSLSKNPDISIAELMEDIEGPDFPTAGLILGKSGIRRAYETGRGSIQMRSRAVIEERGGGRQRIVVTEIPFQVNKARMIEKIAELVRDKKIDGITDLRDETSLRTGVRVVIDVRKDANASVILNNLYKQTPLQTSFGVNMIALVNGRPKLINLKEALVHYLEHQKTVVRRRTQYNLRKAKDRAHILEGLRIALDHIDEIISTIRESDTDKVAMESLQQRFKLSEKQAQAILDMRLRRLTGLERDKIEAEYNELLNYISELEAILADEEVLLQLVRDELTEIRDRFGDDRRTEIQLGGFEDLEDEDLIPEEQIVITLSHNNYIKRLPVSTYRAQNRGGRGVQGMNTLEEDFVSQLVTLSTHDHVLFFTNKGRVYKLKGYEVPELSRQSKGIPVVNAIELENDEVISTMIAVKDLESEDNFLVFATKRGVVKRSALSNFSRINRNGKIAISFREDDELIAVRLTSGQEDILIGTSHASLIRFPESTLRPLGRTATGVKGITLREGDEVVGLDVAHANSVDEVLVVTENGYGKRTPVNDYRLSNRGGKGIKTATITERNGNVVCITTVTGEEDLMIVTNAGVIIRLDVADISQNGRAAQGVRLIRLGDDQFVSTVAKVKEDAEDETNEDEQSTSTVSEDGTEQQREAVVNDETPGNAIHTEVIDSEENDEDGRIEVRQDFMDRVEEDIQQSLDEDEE

| Molecule | IC50 (E. coli DNA gyrase) [µM] | IC50 (E. coli Topoisomerase IV) [µM] | IC50 (S. aureus DNA gyrase) [µM] | inhibition at 50 µM (E. coli DNA gyrase; E. coli) [%] | inhibition at 50 µM (E. coli Topoisomerase IV; E. coli) [%] | inhibition at 50 µM (S. aureus DNA gyrase; S. aureus) [%] | also measured |
| --- | --- | --- | --- | --- | --- | --- | --- |
| O=c1cc(NCCCN2CCN(c3nccc4ccc(Cl)cc34)CC2)c2ccccc2o1 [Compound 51, 4-({3-[4-(7-chloroisoquinolin-1-yl)piperazin-1-yl]propyl}amino)-2H-chromen-2-one] | 0.9 | 2.4 | 4.5 |  |  |  | inhibition at 100 µM (E. coli DNA gyrase; E. coli): 100%; inhibition at 100 µM (E. coli Topoisomerase IV; E. coli): 88%; inhibition at 100 µM (S. aureus DNA gyrase; S. aureus): 91% |
| O=c1oc2ccccc2c2[nH]c(CCN3CCN(c4nccc5ccc(F)cc45)CC3)nc12 [Compound 143, 2-{2-[4-(7-fluoroisoquinolin-1-yl)piperazin-1-yl]ethyl}chromeno[3,4-d]imidazol-4(1H)-one] |  |  |  | 96 | 91 | 89 |  |
| O=c1cc(N[C@H]2C[C@H](N3CCN(c4nccc5ccccc45)CC3)C2)c2ccccc2o1 [Compound 55, trans-4-({3-[4-(isoquinolin-1-yl)piperazin-1-yl]cyclobutyl}amino)-2H-chromen-2-one] | 2.1 | 2.6 | 5.6 |  |  |  | inhibition at 100 µM (E. coli DNA gyrase; E. coli): 94%; inhibition at 100 µM (E. coli Topoisomerase IV; E. coli): 95%; inhibition at 100 µM (S. aureus DNA gyrase; S. aureus): 86% |
| O=c1oc2ccccc2c2[nH]c(CNC3CCN(c4nccc5ccc(F)cc45)CC3)nc12 [Compound 146, 2-({[1-(7-fluoroisoquinolin-1-yl)piperidin-4-yl]amino}methyl)[1]benzopyrano[3,4-d]imidazol-4(1H)-one] |  |  |  | 91 | 100 | 93 |  |
| O=c1cc(CC(O)CCN2CCN(c3nccc4ccc(F)cc34)CC2)c2ccccc2o1 (stereo not shown) [Compound 134, 4-{4-[4-(7-fluoroisoquinolin-1-yl)piperazin-1-yl]-2-hydroxybutyl}-2H-chromen-2-one] | 2.8 | 2.5 | 0.81 | 87 | 78 | 71 |  |
| c1ccc2c(N3CCN(CCCNCc4cc5c(cn4)OCS5)CC3)nccc2c1 [Compound 46, 3-[4-(isoquinolin-1-yl)piperazin-1-yl]-N-([1,3]oxathiolo-[5,4-c]pyridin-6-ylmethyl)propan-1-amine] |  |  |  |  |  |  | inhibition at 200 µM (E. coli DNA gyrase; E. coli): 57%; inhibition at 200 µM (E. coli Topoisomerase IV; E. coli): 94%; inhibition at 200 µM (S. aureus DNA gyrase; S. aureus): 100% |
| O=c1oc2ccccc2c2[nH]c(CCCN3CCN(c4nccc5ccc(F)cc45)CC3)nc12 [Compound 147, 2-{3-[4-(7-fluoroisoquinolin-1-yl)piperazin-1-yl]propyl}[1]benzopyrano[3,4-d]imidazol-4(1H)-one] |  |  |  | 84 | 74 | 85 |  |
| O=c1cc(NCCCN2CCN(c3nccc4ccc(F)cc34)CC2)c2c(o1)CCOC2 [Compound 125, 4-({3-[4-(7-fluoroisoquinolin-1-yl)piperazin-1-yl]propyl}amino)-7,8-dihydro-2H,5H-pyrano[4,3-b]pyran-2-one] | 6.3 | 59 | 19 | 86 | 68 | 89 |  |
| NC(=O)C1CN(c2nccc3ccccc23)CCN1CCCNc1cc(=O)oc2ccccc12 (stereo not shown) [Compound 89, 4-(isoquinolin-1-yl)-1-{3-[(2-oxo-2H-chromen-4-yl)amino]propyl}piperazine-2-carboxamide hydrochloride] | 28 | 54 |  | 87 | 51 |  |  |
| O=c1cc(NC2CCN(CCCc3cccc4ocnc34)CC2)c2ccccc2o1 [Compound 27, 4-({1-[3-(1,3-benzoxazol-4-yl)propyl]piperidin-4-yl}amino)-2H-chromen-2-one] |  |  |  |  |  |  | inhibition at 200 µM (E. coli DNA gyrase; E. coli): 61%; inhibition at 200 µM (E. coli Topoisomerase IV; E. coli): 53% |
| O=c1oc2ccccc2c2[nH]c(CNC3CCN(c4nccc5ccc(F)cc45)CC3)cc12 [Compound 145, 2-({[1-(7-fluoroisoquinolin-1-yl)piperidin-4-yl]amino}methyl)[1]benzopyrano[4,3-b]pyrrol-4(1H)-one] |  |  |  | 99 | 100 | 97 |  |
| C[N+]1(CCCNc2cc(=O)oc3ccccc23)CCN(c2nccc3ccccc23)CC1 [Compound 124, 4-(isoquinolin-1-yl)-1-methyl-1-{3-[(2-oxo-2H-chromen-4-yl)amino]propyl}piperazin-1-ium iodide] | 7 | 6 | 9 | 79 | 62 | 75 |  |
| 4-chloro-2H-chromen-2-one [Compound 63] |  |  |  |  |  |  | % inhibition DNA gyrase (E. coli DNA gyrase; E. coli): 98%; % inhibition Topo IV (E. coli Topoisomerase IV; E. coli): 51% |
| O=c1cc(NC2CCN(CCCc3nccc4ccccc34)CC2)c2ccccc2o1 [Compound 29, 4-({1-[3-(isoquinolin-1-yl)propyl]piperidin-4-yl}amino)-2H-chromen-2-one] | 6 | 10 | 20 |  |  |  | inhibition at 200 µM (E. coli DNA gyrase; E. coli): 92%; inhibition at 200 µM (E. coli Topoisomerase IV; E. coli): 100%; inhibition at 200 µM (S. aureus DNA gyrase; S. aureus): 86% |
| 1,3-dichloroisoquinoline [Compound 66] |  |  |  |  |  |  | % inhibition DNA gyrase (E. coli DNA gyrase; E. coli): 100%; IC50 (E. coli DNA gyrase; [1]): 2.3 µM; % inhibition Topo IV (E. coli Topoisomerase IV; E. coli): 58%; IC50 (E. coli Topoisomerase IV; [2]): 3.2 µM; % inhibition DNA gyrase (S. aureus DNA gyrase; S. aureus): 87%; IC50 (S. aureus DNA gyrase; [3]): 12.1 µM |
| 5-chloro-1,6-naphthyridine [Compound 65] |  |  |  |  |  |  | % inhibition DNA gyrase (E. coli DNA gyrase; E. coli): 94%; IC50 (E. coli DNA gyrase; [1]): 40.6 µM; % inhibition Topo IV (E. coli Topoisomerase IV; E. coli): 80%; IC50 (E. coli Topoisomerase IV; [2]): 29.3 µM; % inhibition DNA gyrase (S. aureus DNA gyrase; S. aureus): 80%; IC50 (S. aureus DNA gyrase; [3]): 26.8 µM |
| O=c1cc(NCCCN2CCN(c3nccc4ccccc34)CC2CO)c2ccccc2o1 (stereo not shown) [Compound 90, 4-({3-[2-(hydroxymethyl)-4-(isoquinolin-1-yl)piperazin-1-yl]-propyl}amino)-2H-chromen-2-one] | 8.3 | 15.5 | 9.3 | 93 | 81 | 89 |  |
| O=C1Cc2cccc(CCCN3CCC(Nc4cc(=O)oc5ccccc45)CC3)c2N1 [Compound 40, 7-(3-{4-[(2-oxo-2H-chromen-4-yl)amino]piperidin-1-yl}propyl)-1,3-dihydro-2H-indol-2-one] |  |  |  |  |  |  | inhibition at 200 µM (E. coli DNA gyrase; E. coli): 54%; inhibition at 200 µM (E. coli Topoisomerase IV; E. coli): 78% |

From US10221144B2, “Antibacterial compounds having broad spectrum of activity” (priority 2014, dated 2019)
